We go through 43 compounds from the Deep4Chem optical property database.

This series in a line: photoluminescence quantum yield (fraction); solvent given as SMILES.
[1] abbreviates: in O=P(c1ccccc1)(c1ccccc1)c1ccccc1Oc1ccccc1P(=O)(c1ccccc1)c1ccccc1.

Under “in ClCCl”, `CC(C)[Si](C#Cc1c2cc3ccccc3cc2c(C#C[Si](C(C)C)(C(C)C)C(C)C)c2cc3ccccc3cc12)(C(C)C)C(C)C` yielded a photoluminescence quantum yield of 0.15.

As for `CC1(C)[C@@H]2CC[C@]1(C)c1nc3cc(-c4cccs4)ccc3nc12`, the photoluminescence quantum yield is, setting by setting: (in CC#N) 0.06; (in CCCCO) 0.35; (in CCO) 0.37; (in CCOC(C)=O) 0.02; (in CO) 0.52; (in Cc1ccccc1) 0.01. Further, the photoluminescence quantum yield is, setting by setting: (in ClC(Cl)Cl) 0.11; (in ClCCl) 0.05.

Take `CN(C)CCN(Cc1c2ccccc2cc2ccccc12)c1ccc([N+](=O)[O-])cn1`: the photoluminescence quantum yield was 0.0003 (in C1CCCCC1); 0.0009 (in C1CCOC1); 0.0383 (in CC#N); 0.00324 (in CC(C)=O); 0.0115 (in CCO); 0.0398 (in CN(C)C=O). Besides, the photoluminescence quantum yield by setting is: (in CO) 0.00453; (in ClC(Cl)Cl) 0.005.

`N#Cc1nn(-c2cc(F)cc(F)c2)nc1N1CCCC1`: the photoluminescence quantum yield (in CC#N) worked out at 0.837.

`Cc1cc(C(F)(F)F)nc2c1ccc1nc(-c3ccc(Cl)cc3)cn12`: the photoluminescence quantum yield runs as follows: (in CC#N) 0.84; (in CCCCOC(C)=O) 0.76; (in CCOC(C)=O) 0.9; (in CO) 0.78; (in ClC(Cl)Cl) 0.64; (in c1ccccc1) 0.88.

As for `c1ccc(Nc2nc(Nc3ccccc3)nc(Nc3cc4ccc5cccc6ccc(c3)c4c56)n2)cc1`, the photoluminescence quantum yield is, setting by setting: (in CC#N) 0.19; (in CCCCOCCCC) 0.21; (in CO) 0.21.

For `CN1c2cc3nc4cc(Cl)c(Cl)cc4nc3cc2N(C)C1(C)C`, the photoluminescence quantum yield (in CCO) was found to be 0.7.

Where the note is “in CO”, `c1ccc(N(c2ccccc2)c2ccc(-c3ncc(-c4ccc(-c5ccc(-c6cnc(-c7ccc(N(c8ccccc8)c8ccccc8)cc7)s6)s5)s4)s3)cc2)cc1` displayed a photoluminescence quantum yield of 0.16.

In turn, `c1cnc2c(c1)c1nc(-c3ccc(-c4nc5c6cccnc6c6ncccc6c5[nH]4)cc3)[nH]c1c1cccnc12` yielded a photoluminescence quantum yield (in CS(C)=O) of 0.84.

For `CCC1=C(C)C(=O)n2c1cc1c(C)cc(C)n1c2=O`, the photoluminescence quantum yield runs as follows: (in CO) 0.89; (in CS(C)=O) 0.92; (in ClC(Cl)Cl) 0.96; (in c1ccccc1) 1.

For the setting “in ClC(Cl)Cl”, `CC[N+](CC)=c1ccc2c(-c3ccccc3C(=O)O)c3cc4c(-c5ccccc5C(=O)O)c5ccc(=[N+](CC)CC)cc-5oc4cc3oc-2c1` displayed a photoluminescence quantum yield of 0.17.

As to `C(=C\c1ccc(N(c2ccccc2)c2ccccc2)cc1)/c1ccc(/C=C/c2ccc(N(c3ccccc3)c3ccccc3)cc2)cc1`, the photoluminescence quantum yield (in Cc1ccccc1) stood at 0.82.

`CCCCCCn1c2ccccc2c2cc3c4cc5c6ccccc6n(CCCCCC)c5cc4c4cc5c(C)cc(=O)oc5cc4c3cc21` showed a photoluminescence quantum yield (in ClC(Cl)Cl) of 0.12.

Regarding `CC(C)c1cccc(C(C)C)c1N1C(=O)c2ccc3cc4c(cc5ccc6c7c(ccc4c57)C(=O)N(c4c(C(C)C)cccc4C(C)C)C6=O)c4ccc(c2c34)C1=O`, the photoluminescence quantum yield (in ClCCl) came to 0.53.

In turn, `CC1(C)C(/C=C/C2=C(Cl)C(=C/C=C3/N(Cc4ccc(C(=O)O)cc4)c4ccccc4C3(C)C)/CCC2)=[N+](Cc2ccc(C(=O)O)cc2)c2ccccc21` gave a photoluminescence quantum yield (in CCO) of 0.11.

Turning to `c1ccc(-c2nc(-c3ccc(N4c5ccccc5C(c5ccccc5)(c5ccccc5)c5ccccc54)cc3)cc(-c3ccccn3)n2)cc1`, the photoluminescence quantum yield under setting [1] came out at 0.83.

Compound `CCCc1ccc(C#Cc2ccc3nc4ccc(C#Cc5ccc(CCC)cc5)cn4c(=O)c3c2)cc1` returned a photoluminescence quantum yield (in ClCCl) of 0.45.

Take `COc1ccc(C2=[N+]3C(=Nc4c5c6ccccc6c6ccc(C(C)(C)C)cc6c5c(-c5ccc(OC)cc5)n4[B-]3(F)F)c3c2c2cc(C(C)(C)C)ccc2c2ccccc32)cc1`: where the note is “in Cc1ccccc1”, the photoluminescence quantum yield is 0.32.

Take `CCCCCCc1ccsc1-c1ccc2c(c1)C1=[N+]3C2=Cc2c4ccc(-c5sccc5CCCCCC)cc4c4n2[B-]3(Oc2ccccc21)Oc1ccccc1-4` (configuration not stated): under “in C1CCOC1”, the photoluminescence quantum yield was found to be 0.

In the case of `CCC1=C(C)C2=C(c3c4ccccc4c(-c4ccccc4)c4ccccc34)c3c(C)c(CC)c(C)n3[B-](F)(F)[N+]2=C1C`, the photoluminescence quantum yield is 0.422 (in CC#N); 0.903 (in CCCCCC); 0.804 (in CCO); 0.648 (in CN(C)C=O); 0.858 (in Cc1ccccc1); 0.833 (in ClCCl).

As for `CNC(=O)[C@H](C)NC(=O)c1cccc2c1C#Cc1c(N)cccc1OCCCO2`, the photoluminescence quantum yield stood at 0.25 (in CC#N) and 0.44 (in ClCCl).

Under “in CCO”, `CC1(C)CC(/C=C/c2ccc(-n3cccn3)cc2)=CC(=C(C#N)C#N)C1` yielded a photoluminescence quantum yield of 0.0001.

As for `O=C1c2cccc3cc(C#CC#Cc4cc5c6c(cccc6c4)C(=O)N(c4ccccc4)C5=O)cc(c23)C(=O)N1c1ccccc1`, the photoluminescence quantum yield (in ClCCl) amounted to 0.79.

As for `CN(C)CCNCc1c2ccccc2cc2ccccc12`, the photoluminescence quantum yield by setting is: (in C1CCCCC1) 0.0769; (in C1CCOC1) 0.00216; (in CC#N) 0.00137; (in CC(C)=O) 0.0234; (in CCO) 0.0179; (in CN(C)C=O) 0.00064. The photoluminescence quantum yield reads like this: (in CO) 0.0124; (in ClC(Cl)Cl) 0.0315.

As to `CN(C)c1ccc(-c2cc3c(s2)c(C(=O)c2ccccc2)cc(=O)n3Cc2ccccc2)cc1`, for the setting “in ClCCl”, the photoluminescence quantum yield was 0.01.

In the case of `Cc1cc(-n2c3ccccc3c3cc4c(cc32)C2c3ccccc3C4c3ccccc32)c(C)cc1-c1nc(-c2ccccc2)nc(-c2ccccc2)n1`, the photoluminescence quantum yield reads like this: (in Cc1ccccc1) 0.46; under setting [1], 0.3.

With `CC1=[N+]2C(=C(c3ccc(N4CCOCC4)cc3)c3ccc(C)n3[B-]2(F)F)C=C1`, the photoluminescence quantum yield is, setting by setting: (in C1CCCCC1) 0.35; (in CC(=O)C(C)(C)C) 0.002; (in CC(C)=O) 0.002; (in CCCCCC) 0.388; (in CCOC(C)=O) 0.008; (in CO) 0.005. Further, the photoluminescence quantum yield by setting is: (in Cc1ccccc1) 0.32; (in ClC(Cl)Cl) 0.11.

For `Cc1cc(C)cc(C)c1`, where the note is “in C1CCCCC1”, the photoluminescence quantum yield came out at 0.27.

The compound `ClP1(Cl)=N[P@](Cl)(Oc2ccc3ccc4cccc5ccc2c3c45)=N[P@@](Cl)(Oc2ccc3ccc4cccc5ccc2c3c45)=N1` gave a photoluminescence quantum yield (in ClCCl) of 0.76.

For `c1ccc2nc(-n3c4ccccc4c4ccccc43)c(-n3c4ccccc4c4ccccc43)nc2c1`, where the note is “in Cc1ccccc1”, the photoluminescence quantum yield is 0.13.

With `O=CC12N=N[C@](C=O)(C3C4CCC(C4)C31)C1[C@@H]3CC[C@@H](C3)[C@H]12` (some centres not stated), the photoluminescence quantum yield (in CC#N) stood at 0.049.

Where the note is “in CCO”, `Cc1c(COC(=O)c2ccccc2)n2c(OCC(=O)c3ccccc3)c(C)c(=O)n2c1=O` gave a photoluminescence quantum yield of 0.839.

For `CC1=[N+]2C(=C(Oc3cc(C)c4c(c3)CC[C@@](C)(CCC[C@H](C)CCC[C@H](C)CCCC(C)C)O4)c3ccc(C)n3[B-]2(F)F)C=C1c1cc2n(c1)[B-](F)(F)[N+]1=CC=CC1=C2c1c(C)cc(C)cc1C`, the photoluminescence quantum yield was found to be 0.45 (in C1CCCCC1) and 0.11 (in CCOC(C)=O).

Compound `O=CN1N=C(c2ccc(Br)cc2)C[C@@H]1c1ccccc1` showed a photoluminescence quantum yield (in C1CCCCC1) of 0.25; a photoluminescence quantum yield (in C1COCCO1) of 0.25; a photoluminescence quantum yield (in CC#N) of 0.14; a photoluminescence quantum yield (in CCO) of 0.13; a photoluminescence quantum yield (in CCOC(C)=O) of 0.18; a photoluminescence quantum yield (in CO) of 0.05. Further, the photoluminescence quantum yield is 0.11 (in CS(C)=O), 0.01 (in Cc1ccccc1) and 0.02 (in ClC(Cl)(Cl)Cl).

For the setting “in CO”, `O=C(O)c1ccc(-c2cnc(-c3ccc(N(c4ccccc4)c4ccccc4)cc3)s2)cc1` showed a photoluminescence quantum yield of 0.4.

On to `c1ccc(-c2cc(-c3ccc(N4c5ccccc5C(c5ccccc5)(c5ccccc5)c5ccccc54)cc3)nc(-c3ccccc3)n2)cc1`, for which, under setting [1], the photoluminescence quantum yield was 0.7.

Regarding `C(=C\c1nc2ccccc2[nH]1)/c1ccc(-c2nc3c4cccnc4c4ncccc4c3[nH]2)cc1`, the photoluminescence quantum yield was determined as 0.11 (in C1CCOC1), 0.15 (in CC#N), 0.09 (in CO) and 0.07 (in ClCCl).

Compound `O=C1/C(=C2\Nc3cc4ccc5cccc6ccc(c3C2=O)c4c56)Nc2cc3ccc4cccc5ccc(c21)c3c45` showed a photoluminescence quantum yield (in C1CCOC1) of 0.0076.

As to `CCOC(=O)c1ccc(C2=CC3=c4cc(-c5ccc(C(=O)OCC)cc5)c5nc(C(F)(F)C(F)(F)C(F)(F)F)nc6c(-c7ccc(C(=O)OCC)cc7)cc(c4c65)C4=CC(c5ccc(C(=O)OCC)cc5)=C5N=C(C(F)(F)C(F)(F)C(F)(F)F)N=C2C5C43)cc1` (configuration not stated), the photoluminescence quantum yield (in C1CCOC1) came to 0.79.

Regarding `CN(C)c1ccc2cc3ccc(=[N+](C)C)cc-3oc2c1`, the photoluminescence quantum yield by setting is: (in CCO) 0.48; (in O) 0.38.

`C(=C\c1ccc(N(c2ccc(/C=C/c3ccc(-c4cc(-c5ccccc5)nc(-c5ccccc5)c4)cc3)cc2)c2ccc(/C=C/c3ccc(-c4cc(-c5ccccc5)nc(-c5ccccc5)c4)cc3)cc2)cc1)/c1ccc(-c2cc(-c3ccccc3)nc(-c3ccccc3)c2)cc1`: the photoluminescence quantum yield was determined as 0.08 (in C1CCOC1) and 0.14 (in Cc1ccccc1).

With `Fc1nc(F)c(F)c(C#Cc2cc3c(cc2C#Cc2c(F)c(F)nc(F)c2F)OC2(CCCCC2)O3)c1F`, the photoluminescence quantum yield (in CC#N) was 0.9.

As to `COc1cc(C2=c3c(c4ccc(C(C)(C)C)cc4c4c(OC)c(OC)c(OC)cc34)=[N+]3C2=Nc2c(-c4cc(OC)c(OC)c(OC)c4)c4c5cc(OC)c(OC)c(OC)c5c5cc(C(C)(C)C)ccc5c4n2[B-]3(F)F)cc(OC)c1OC`, for the setting “in Cc1ccccc1”, the photoluminescence quantum yield came out at 0.001.
